Where two headings read alike, the source gives them in different places.
Assays:
Assay type in all cases: cell-based
BCL-XL = target: T1, BCL-XL (Homo sapiens, UniProt Q07817); assay: BCL-XL degradation assay in MOLT-4 cells (ELISA, 6 h); conditions: for DC50: read-out: Bcl-xL ELISA in MOLT-4 degradation 6 h: External Abs-DC50
T1 construct: BCL-XL degradation results in MOLT-4 cells for compounds of the invention; endogenous in cells; host or cells: MOLT-4

Caki-2 cells = assay: CTG (CellTiter-Glo) cell viability assay, Caki-2; conditions: Caki-2, 3-day, read-out: CTG Chempartner/PHA- Caki-2 3-day: Average external-IC50
In short: (§1)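 Cells seeded at 10,000 per well, then exposed to a 9-point 1:3 dilution series from 10 µM top concentration (0.2% DMSO) for 3 days at 37 °C, 5% CO2. Viability measured by CellTiter-Glo luminescence; IC50 from a three-parameter logistic fit.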

MOLT-4 cells = assay: CTG (CellTiter-Glo) cell viability assay, MOLT-4; conditions: MOLT-4, 3 day, read-out: CTG Cell Viability Assay - MOLT-4 3 day: Average external-IC50
In short: as §1

T1 sequence (Q07817 whole entry): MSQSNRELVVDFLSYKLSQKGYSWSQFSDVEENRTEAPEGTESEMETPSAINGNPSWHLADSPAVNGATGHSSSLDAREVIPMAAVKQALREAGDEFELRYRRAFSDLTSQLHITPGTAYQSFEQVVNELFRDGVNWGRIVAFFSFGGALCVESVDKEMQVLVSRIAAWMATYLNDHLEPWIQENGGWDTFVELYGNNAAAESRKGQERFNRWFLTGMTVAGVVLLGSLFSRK

Dmax (BCL-XL) | DC50 (BCL-XL) | IC50 (MOLT-4 cells; Homo sapiens, MOLT-4, 72 h) | Bcl-xL ELISA in MOLT-4 degradation 6 h: Dmax % (BCL-XL) | IC50 (MOLT-4 cells) | SMILES | IC50 (Caki-2 cells; Homo sapiens, CAKI-2, 72 h) | IC50 (Caki-2 cells)
50 to 75% | < 10 nM | < 100 nM |  |  | Cc1ncsc1-c1ccc([C@H](C)NC(=O)[C@@H]2C[C@@H](O)CN2C(=O)[C@@H](NC(=O)CCCCCC(=O)N2CCCN(CC[C@H](CSc3ccccc3)Nc3ccc(S(=O)(=O)NC(=O)c4ccc(N5CCN([C@@H](O)c6ccccc6-c6ccc(Cl)cc6)CC5)cc4)cc3S(=O)(=O)C(F)(F)F)CC2)C(C)(C)C)cc1 [I-124] | 10000 to 30000 nM | 
> 75% | < 10 nM | < 100 nM |  |  | C#Cc1ccc([C@H](CO)NC(=O)[C@@H]2C[C@@H](O)CN2C(=O)[C@@H](NC(=O)CCCCCC(=O)N2CCN(CCCNc3ccc(S(=O)(=O)NC(=O)c4ccc(N5CCN(CC6=C(c7ccc(Cl)cc7)CC(C)(C)CC6)CC5)cc4Oc4cnc5[nH]ccc5c4)cc3S(=O)(=O)C(F)(F)F)CC2)C(C)(C)C)cc1 [I-102] | > 30000 nM | 
> 75% | 10 to 100 nM | 100 to 1000 nM |  |  | C#Cc1ccc([C@H](C)NC(=O)[C@@H]2C[C@@H](O)CN2C(=O)[C@@H](NC(=O)CCCCCC(=O)N2CCN(CC[C@H](CSc3ccccc3)Nc3ccc(S(=O)(=O)NC(=O)c4ccc(N5CCC([C@@H](O)c6ccccc6-c6ccc(Cl)cc6)CC5)cc4)cc3S(=O)(=O)C(F)(F)F)CC2)C(C)(C)C)cc1 (single isomer, unassigned) [I-29] | 10000 to 30000 nM | 
50 to 75% | 100 to 500 nM | > 3000 nM |  |  | Cc1ncsc1-c1ccc([C@H](C)NC(=O)[C@@H]2C[C@@H](O)CN2C(=O)[C@@H](NC(=O)CCCCCC(=O)N2CCN(CC[C@H](CSc3ccccc3)Nc3ccc(S(=O)(=O)NC(=O)c4ccc(NC5CCOCC5)cc4)cc3S(=O)(=O)C(F)(F)F)CC2)C(C)(C)C)cc1 [I-39] | > 30000 nM | 
50 to 75% | 10 to 100 nM | < 100 nM |  |  | Cc1ncsc1-c1ccc([C@H](C)NC(=O)[C@@H]2C[C@@H](O)CN2C(=O)[C@@H](NC(=O)CCCCCC(=O)N2CCCN(CCCNc3ccc(S(=O)(=O)NC(=O)c4ccc(N5CCN(CC6=C(c7ccc(Cl)cc7)CC(C)(C)CC6)CC5)cc4Oc4cnc5[nH]ccc5c4)cc3S(=O)(=O)C(F)(F)F)CC2)C(C)(C)C)cc1 [I-106] | > 30000 nM | 
< 50% | 500 to 1000 nM | > 3000 nM |  |  | Cc1ncsc1-c1ccc([C@H](C)NC(=O)[C@@H]2C[C@@H](O)CN2C(=O)[C@@H](NC(=O)CCCCCC(=O)N2CCN(Cc3ccc(-c4ccc(Cl)cc4)c(CN4CCN(c5ccc(C(=O)NS(=O)(=O)c6ccc(N[C@H](CCN(C)C)CSc7ccccc7)c([N+](=O)[O-])c6)cc5)CC4)c3)CC2)C(C)(C)C)cc1 [I-7] | > 30000 nM | 
< 50% | 500 to 1000 nM | 1000 to 3000 nM |  |  | Cc1ncsc1-c1ccc([C@H](C)NC(=O)[C@@H]2C[C@@H](O)CN2C(=O)[C@@H](NC(=O)CCCC(=O)N2CCN(CCCNc3ccc(S(=O)(=O)NC(=O)c4ccc(N5CCC([C@H](O)c6ccccc6-c6ccc(Cl)cc6)CC5)cc4Oc4cnc5[nH]ccc5c4)cc3S(=O)(=O)C(F)(F)F)CC2)C(C)(C)C)cc1 (single isomer, unassigned) [I-60] | > 30000 nM | 
< 50% | 500 to 1000 nM | > 3000 nM |  |  | Cc1ncsc1-c1ccc([C@H](C)NC(=O)[C@@H]2C[C@@H](O)CN2C(=O)[C@@H](NC(=O)CCCCCCNC(=O)c2ccc(-c3ccc(Cl)cc3)c(CN3CCN(c4ccc(C(=O)NS(=O)(=O)c5ccc(N[C@H](CCN(C)C)CSc6ccccc6)c([N+](=O)[O-])c5)cc4)CC3)c2)C(C)(C)C)cc1 [I-11] | > 30000 nM | 
< 50% | 500 to 1000 nM | 100 to 1000 nM |  |  | C#Cc1ccc([C@H](C)NC(=O)[C@@H]2C[C@@H](O)CN2C(=O)[C@@H](NC(=O)CCCCCC(=O)N2CCN(CCCNc3ccc(S(=O)(=O)NC(=O)c4ccc(N5CCN(CC6=C(c7ccc(Cl)cc7)CC(C)(C)CC6)CC5)cc4Oc4cnc5[nH]ccc5c4)cc3S(=O)(=O)C(F)(F)F)CC2)C(C)(C)C)cc1 [I-85] | > 30000 nM | 
50 to 75% | 500 to 1000 nM | > 3000 nM |  |  | Cc1ncsc1-c1ccc([C@H](C)NC(=O)[C@@H]2C[C@@H](O)CN2C(=O)[C@@H](NC(=O)CCCCCC(=O)N2CCN(CC[C@H](CSc3ccccc3)Nc3ccc(S(=O)(=O)NC(=O)c4ccc(N5CC6CCC5C6)cc4)cc3S(=O)(=O)C(F)(F)F)CC2)C(C)(C)C)cc1 (stereo partly shown) [I-40] | > 30000 nM | 
< 50% | 500 to 1000 nM | > 3000 nM |  |  | Cc1ncsc1-c1ccc([C@H](C)NC(=O)[C@@H]2C[C@@H](O)CN2C(=O)[C@@H](NC(=O)CCCCCC(=O)N2CCN(CC[C@H](CSc3ccccc3)Nc3ccc(S(=O)(=O)NC(=O)c4ccc(N5CC6CC6C5)cc4)cc3S(=O)(=O)C(F)(F)F)CC2)C(C)(C)C)cc1 (stereo partly shown) [I-37] | > 30000 nM | 
< 50% | 500 to 1000 nM | 100 to 1000 nM |  |  | Cc1ncsc1-c1ccc([C@H](C)NC(=O)[C@@H]2C[C@@H](O)CN2C(=O)[C@@H](NC(=O)CCCCCC(=O)N2CCN(CCCNc3ccc(S(=O)(=O)NC(=O)c4ccc(N5CCC([C@@H](O)c6ccccc6-c6ccc(Cl)cc6)CC5)cc4Oc4cnc5[nH]ccc5c4)cc3S(=O)(=O)C(F)(F)F)CC2)C(C)(C)C)cc1 (single isomer, unassigned) [I-23] | > 30000 nM | 
> 75% | 10 to 100 nM | 100 to 1000 nM |  |  | Cc1ncsc1-c1ccc([C@H](C)NC(=O)[C@@H]2C[C@@H](O)CN2C(=O)[C@@H](NC(=O)CCCCCCN2CCN(CC[C@H](CSc3ccccc3)Nc3ccc(S(=O)(=O)NC(=O)c4ccc(N5CCC([C@@H](O)c6ccccc6-c6ccc(Cl)cc6)CC5)cc4)cc3S(=O)(=O)C(F)(F)F)CC2)C(C)(C)C)cc1 [I-118] | > 30000 nM | 
< 50% | 500 to 1000 nM | > 3000 nM |  |  | Cc1ncsc1-c1ccc([C@H](C)NC(=O)[C@@H]2C[C@@H](O)CN2C(=O)[C@@H](NC(=O)CCCCCCC(=O)N2CCN(C(=O)c3ccc(-c4ccc(Cl)cc4)c(CN4CCN(c5ccc(C(=O)NS(=O)(=O)c6ccc(N[C@H](CCN(C)C)CSc7ccccc7)c([N+](=O)[O-])c6)cc5)CC4)c3)CC2)C(C)(C)C)cc1 [I-6] | > 30000 nM | 
< 50% | 500 to 1000 nM | > 3000 nM |  |  | Cc1ncsc1-c1ccc([C@H](C)NC(=O)[C@@H]2C[C@@H](O)CN2C(=O)[C@@H](NC(=O)C2CCN(c3ccc(NC(=O)c4ccc(-c5ccc(Cl)cc5)c(CN5CCN(c6ccc(C(=O)NS(=O)(=O)c7ccc(N[C@H](CCN(C)C)CSc8ccccc8)c([N+](=O)[O-])c7)cc6)CC5)c4)cc3)CC2)C(C)(C)C)cc1 [I-21] | > 30000 nM | 
50 to 75% | 500 to 1000 nM | > 3000 nM |  |  | Cc1ncsc1-c1ccc([C@H](C)NC(=O)[C@@H]2C[C@@H](O)CN2C(=O)[C@@H](NC(=O)CCCCCC(=O)N2CCC(NCC[C@H](CSc3ccccc3)Nc3ccc(S(=O)(=O)NC(=O)c4ccc(N5CCN([C@@H](O)c6ccccc6-c6ccc(Cl)cc6)CC5)cc4)cc3S(=O)(=O)C(F)(F)F)CC2)C(C)(C)C)cc1 [I-127] | > 30000 nM | 
50 to 75% | 10 to 100 nM | < 100 nM |  |  | Cc1ncsc1-c1ccc([C@H](C)NC(=O)[C@@H]2C[C@@H](O)CN2C(=O)[C@@H](NC(=O)CCCCCCN(C)CC[C@H](CSc2ccccc2)Nc2ccc(S(=O)(=O)NC(=O)c3ccc(N4CCC([C@@H](O)c5ccccc5-c5ccc(Cl)cc5)CC4)cc3)cc2S(=O)(=O)C(F)(F)F)C(C)(C)C)cc1 [I-108] | > 30000 nM | 
< 50% | 500 to 1000 nM | > 3000 nM |  |  | Cc1ncsc1-c1ccc([C@H](C)NC(=O)[C@@H]2C[C@@H](O)CN2C(=O)[C@@H](NC(=O)CCCCCC(=O)N2CCN(CCCN(C)CC[C@H](CSc3ccccc3)Nc3ccc(S(=O)(=O)NC(=O)c4ccc(N5CCC([C@@H](O)c6ccccc6-c6ccc(Cl)cc6)CC5)cc4)cc3S(=O)(=O)C(F)(F)F)CC2)C(C)(C)C)cc1 [I-24] | > 30000 nM | 
 | 500 to 1000 nM |  | C (C (<50%)) | 100 to 1000 nM | Cc1ncsc1-c1ccc(CNC(=O)[C@@H]2C[C@@H](O)CN2C(=O)[C@@H](NC(=O)CCCCCCC(=O)N2CCN(C[C@]3(C)CCC(c4ccc(Cl)cc4)=C(CN4CCN(c5ccc(C(=O)NS(=O)(=O)c6ccc(NCCCN7CCOCC7)c(S(=O)(=O)C(F)(F)F)c6)c(Oc6cnc7[nH]ccc7c6)c5)CC4)C3)CC2)C(C)(C)C)cc1 [I-134] |  | < 5000 nM
50 to 75% | 100 to 500 nM | 1000 to 3000 nM |  |  | Cc1ncsc1-c1ccc([C@H](C)NC(=O)[C@@H]2C[C@@H](O)CN2C(=O)[C@@H](NC(=O)CCCCC(=O)N2CCN(CCCNc3ccc(S(=O)(=O)NC(=O)c4ccc(N5CCN(CC6=C(c7ccc(Cl)cc7)CC(C)(C)CC6)CC5)cc4Oc4cnc5[nH]ccc5c4)cc3S(=O)(=O)C(F)(F)F)CC2)C(C)(C)C)cc1 [I-63] | > 30000 nM | 
50 to 75% | 10 to 100 nM | < 100 nM |  |  | Cc1ncsc1-c1ccc([C@H](C)NC(=O)[C@@H]2C[C@@H](O)CN2C(=O)[C@@H](NC(=O)CCCCC(=O)N2CCC3(CCN(CC[C@H](CSc4ccccc4)Nc4ccc(S(=O)(=O)NC(=O)c5ccc(N6CCN([C@@H](O)c7ccccc7-c7ccc(Cl)cc7)CC6)cc5)cc4S(=O)(=O)C(F)(F)F)CC3)CC2)C(C)(C)C)cc1 [I-126] | < 5000 nM | 
> 75% | 10 to 100 nM | < 100 nM |  |  | Cc1ncsc1-c1ccc([C@H](C)NC(=O)[C@@H]2C[C@@H](O)CN2C(=O)[C@@H](NC(=O)CCCCCC(=O)N2CCN(CC[C@H](CSc3ccccc3)Nc3ccc(S(=O)(=O)NC(=O)c4ccc(N5CCN(CC6=C(c7ccc(Cl)cc7)CC(C)(C)CC6)CC5)cc4)cc3S(=O)(=O)C(F)(F)F)CC2)C(C)(C)C)cc1 [I-42] | 5000 to 10000 nM | 

Source: patent US20260092057A1, “BCL-XL/BCL-2 DEGRADERS AND USES THEREOF” (Kymera Therapeutics, Inc., priority 2022, published 2026)
